In ChEMBL document CHEMBL5291721, “A preclinical secondary pharmacology resource illuminates target-adverse drug reaction associations of marketed drugs” (Nat Commun, 2023):

Experiments:
[1] = target: T1, Alpha-1A adrenergic receptor (Homo sapiens, UniProt P35348); assay type: functional, cell-based
T1 sequence (P35348 whole entry): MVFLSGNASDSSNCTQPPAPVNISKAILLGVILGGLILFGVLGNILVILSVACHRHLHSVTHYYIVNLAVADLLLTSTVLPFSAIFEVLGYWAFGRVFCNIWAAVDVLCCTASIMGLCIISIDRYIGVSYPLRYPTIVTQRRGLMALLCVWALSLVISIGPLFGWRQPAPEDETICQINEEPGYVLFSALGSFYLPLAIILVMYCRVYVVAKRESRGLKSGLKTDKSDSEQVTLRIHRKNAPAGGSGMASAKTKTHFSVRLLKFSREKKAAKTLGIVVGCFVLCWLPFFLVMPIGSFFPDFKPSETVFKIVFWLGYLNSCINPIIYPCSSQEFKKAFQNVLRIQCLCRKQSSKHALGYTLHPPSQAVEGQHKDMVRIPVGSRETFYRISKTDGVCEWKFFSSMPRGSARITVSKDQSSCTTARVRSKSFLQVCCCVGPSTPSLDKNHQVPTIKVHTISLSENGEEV

[2] = target: T2, Prostaglandin G/H synthase 1 (Rattus norvegicus, UniProt Q63921); assay type: functional
T2 sequence (Q63921 whole entry): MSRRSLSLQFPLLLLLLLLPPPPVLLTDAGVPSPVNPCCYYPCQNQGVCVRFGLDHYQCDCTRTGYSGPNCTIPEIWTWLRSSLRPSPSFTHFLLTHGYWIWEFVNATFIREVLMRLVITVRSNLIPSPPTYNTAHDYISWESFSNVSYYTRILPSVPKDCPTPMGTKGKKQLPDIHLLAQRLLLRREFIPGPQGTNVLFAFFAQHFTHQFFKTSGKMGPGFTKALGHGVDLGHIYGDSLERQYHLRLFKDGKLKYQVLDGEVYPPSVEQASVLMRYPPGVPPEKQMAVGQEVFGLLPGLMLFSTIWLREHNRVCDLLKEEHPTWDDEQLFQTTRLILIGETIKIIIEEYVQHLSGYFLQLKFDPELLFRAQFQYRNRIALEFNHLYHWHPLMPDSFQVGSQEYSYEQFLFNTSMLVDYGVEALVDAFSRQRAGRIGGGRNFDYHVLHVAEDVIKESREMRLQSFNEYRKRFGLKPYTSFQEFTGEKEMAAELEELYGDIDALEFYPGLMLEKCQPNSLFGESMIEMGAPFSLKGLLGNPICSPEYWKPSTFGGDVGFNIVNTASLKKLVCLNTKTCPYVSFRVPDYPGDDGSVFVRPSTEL

[3] = target: T3, Glucocorticoid receptor (Homo sapiens, UniProt P04150)
T3 sequence (P04150 whole entry): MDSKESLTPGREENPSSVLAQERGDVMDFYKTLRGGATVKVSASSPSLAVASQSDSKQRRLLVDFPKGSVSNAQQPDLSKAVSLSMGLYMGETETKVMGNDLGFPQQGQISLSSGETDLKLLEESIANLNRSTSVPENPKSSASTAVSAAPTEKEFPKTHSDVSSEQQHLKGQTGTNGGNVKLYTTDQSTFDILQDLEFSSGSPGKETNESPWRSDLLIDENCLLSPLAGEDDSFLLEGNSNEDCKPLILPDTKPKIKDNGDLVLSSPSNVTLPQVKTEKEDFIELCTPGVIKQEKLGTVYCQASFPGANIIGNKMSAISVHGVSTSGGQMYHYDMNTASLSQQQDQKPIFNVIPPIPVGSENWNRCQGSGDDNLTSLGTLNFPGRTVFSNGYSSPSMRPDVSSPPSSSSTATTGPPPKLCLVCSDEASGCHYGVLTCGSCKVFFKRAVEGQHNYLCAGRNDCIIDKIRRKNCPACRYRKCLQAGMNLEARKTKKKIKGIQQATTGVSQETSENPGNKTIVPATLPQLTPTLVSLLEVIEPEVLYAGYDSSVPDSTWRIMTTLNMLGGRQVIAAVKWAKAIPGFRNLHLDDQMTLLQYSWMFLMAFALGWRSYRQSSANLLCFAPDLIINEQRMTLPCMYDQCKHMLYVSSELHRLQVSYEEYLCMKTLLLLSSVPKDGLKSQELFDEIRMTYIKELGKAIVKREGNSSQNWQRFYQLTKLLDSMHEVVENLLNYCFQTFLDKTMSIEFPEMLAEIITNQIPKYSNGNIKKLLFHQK

[4] = target: 5-hydroxytryptamine receptor 2B (Homo sapiens, UniProt P41595); assay type: functional, cell-based
[5] = target: T4, Gamma-aminobutyric acid receptor subunit alpha-1 (Rattus norvegicus, UniProt P62813)
[6] = target: T5, Alpha-2A adrenergic receptor (Homo sapiens, UniProt P08913); assay type: functional, cell-based
T5 sequence (P08913 whole entry): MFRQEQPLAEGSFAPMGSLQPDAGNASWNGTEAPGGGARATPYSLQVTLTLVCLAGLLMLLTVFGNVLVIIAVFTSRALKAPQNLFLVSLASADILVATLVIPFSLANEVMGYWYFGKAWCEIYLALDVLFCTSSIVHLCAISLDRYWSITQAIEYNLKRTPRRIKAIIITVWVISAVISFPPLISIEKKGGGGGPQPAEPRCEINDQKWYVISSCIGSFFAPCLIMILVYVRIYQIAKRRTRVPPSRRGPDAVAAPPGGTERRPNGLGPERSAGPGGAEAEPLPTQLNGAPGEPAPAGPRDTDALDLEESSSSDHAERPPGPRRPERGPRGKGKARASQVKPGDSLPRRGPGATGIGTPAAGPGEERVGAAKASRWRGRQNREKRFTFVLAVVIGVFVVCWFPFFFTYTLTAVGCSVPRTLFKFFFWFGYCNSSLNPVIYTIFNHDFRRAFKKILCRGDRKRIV

[7] = target: T4, Gamma-aminobutyric acid receptor subunit alpha-1; assay type: functional
[8] = target: Melanocortin receptor 3 (Homo sapiens, UniProt P41968)
[9] = target: 3',5'-cyclic-AMP phosphodiesterase 4D (Homo sapiens, UniProt Q08499); assay type: functional
[10] = target: cGMP-inhibited 3',5'-cyclic phosphodiesterase 3A (Homo sapiens, UniProt Q14432); assay type: functional
Note: assay procedure not described here.

Sequence of Melanocortin receptor 3 (P41968 whole entry): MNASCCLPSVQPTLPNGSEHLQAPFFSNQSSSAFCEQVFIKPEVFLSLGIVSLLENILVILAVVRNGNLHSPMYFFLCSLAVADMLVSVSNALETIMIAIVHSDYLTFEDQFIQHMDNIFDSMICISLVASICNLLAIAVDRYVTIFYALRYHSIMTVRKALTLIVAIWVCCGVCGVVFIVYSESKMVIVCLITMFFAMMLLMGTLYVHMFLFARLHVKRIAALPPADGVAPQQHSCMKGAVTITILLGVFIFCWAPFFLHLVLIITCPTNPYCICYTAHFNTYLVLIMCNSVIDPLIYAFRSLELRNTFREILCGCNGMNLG
Sequence of cGMP-inhibited 3',5'-cyclic phosphodiesterase 3A (Q14432 whole entry): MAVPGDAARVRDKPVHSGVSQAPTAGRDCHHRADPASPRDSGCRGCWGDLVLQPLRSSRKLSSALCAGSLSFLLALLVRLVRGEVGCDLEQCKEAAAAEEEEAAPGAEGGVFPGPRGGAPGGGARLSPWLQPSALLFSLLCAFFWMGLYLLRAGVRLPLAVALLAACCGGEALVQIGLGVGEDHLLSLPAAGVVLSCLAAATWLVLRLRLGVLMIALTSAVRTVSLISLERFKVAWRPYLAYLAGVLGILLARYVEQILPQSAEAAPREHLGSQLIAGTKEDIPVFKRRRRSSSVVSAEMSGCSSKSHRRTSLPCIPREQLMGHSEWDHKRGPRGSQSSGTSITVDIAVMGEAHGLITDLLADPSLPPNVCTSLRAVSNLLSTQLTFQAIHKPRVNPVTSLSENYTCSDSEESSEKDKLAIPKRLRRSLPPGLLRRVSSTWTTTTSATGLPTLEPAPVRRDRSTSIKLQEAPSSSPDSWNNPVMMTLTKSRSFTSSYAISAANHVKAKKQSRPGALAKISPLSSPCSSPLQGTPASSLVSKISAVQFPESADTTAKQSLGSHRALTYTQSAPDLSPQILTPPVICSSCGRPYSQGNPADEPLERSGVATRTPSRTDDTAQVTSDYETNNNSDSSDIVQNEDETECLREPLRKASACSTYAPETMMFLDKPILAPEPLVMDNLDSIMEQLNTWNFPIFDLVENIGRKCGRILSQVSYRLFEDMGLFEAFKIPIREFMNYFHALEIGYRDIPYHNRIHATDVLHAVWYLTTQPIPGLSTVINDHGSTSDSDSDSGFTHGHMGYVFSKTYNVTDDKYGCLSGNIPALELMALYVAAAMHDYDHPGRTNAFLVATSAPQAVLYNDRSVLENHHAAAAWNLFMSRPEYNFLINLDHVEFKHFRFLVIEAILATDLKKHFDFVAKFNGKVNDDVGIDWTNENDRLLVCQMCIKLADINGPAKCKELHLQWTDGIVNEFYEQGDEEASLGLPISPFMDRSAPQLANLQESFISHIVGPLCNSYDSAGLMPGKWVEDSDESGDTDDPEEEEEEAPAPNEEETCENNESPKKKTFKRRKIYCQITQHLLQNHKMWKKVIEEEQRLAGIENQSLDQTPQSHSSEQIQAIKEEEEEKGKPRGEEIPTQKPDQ
T4 sequence (P62813 whole entry): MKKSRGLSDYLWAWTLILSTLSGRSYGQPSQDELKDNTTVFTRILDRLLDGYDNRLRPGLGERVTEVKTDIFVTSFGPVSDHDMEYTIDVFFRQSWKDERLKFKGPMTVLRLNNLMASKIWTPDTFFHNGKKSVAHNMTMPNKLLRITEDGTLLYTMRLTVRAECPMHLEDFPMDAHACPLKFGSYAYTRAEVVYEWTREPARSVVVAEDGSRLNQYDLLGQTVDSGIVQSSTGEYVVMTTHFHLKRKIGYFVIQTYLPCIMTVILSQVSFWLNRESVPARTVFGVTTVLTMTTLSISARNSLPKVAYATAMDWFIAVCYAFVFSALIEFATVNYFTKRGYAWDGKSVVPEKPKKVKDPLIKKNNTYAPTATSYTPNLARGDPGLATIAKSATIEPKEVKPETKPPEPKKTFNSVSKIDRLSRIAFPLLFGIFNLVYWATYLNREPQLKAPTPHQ
Sequence of 3',5'-cyclic-AMP phosphodiesterase 4D (Q08499 whole entry): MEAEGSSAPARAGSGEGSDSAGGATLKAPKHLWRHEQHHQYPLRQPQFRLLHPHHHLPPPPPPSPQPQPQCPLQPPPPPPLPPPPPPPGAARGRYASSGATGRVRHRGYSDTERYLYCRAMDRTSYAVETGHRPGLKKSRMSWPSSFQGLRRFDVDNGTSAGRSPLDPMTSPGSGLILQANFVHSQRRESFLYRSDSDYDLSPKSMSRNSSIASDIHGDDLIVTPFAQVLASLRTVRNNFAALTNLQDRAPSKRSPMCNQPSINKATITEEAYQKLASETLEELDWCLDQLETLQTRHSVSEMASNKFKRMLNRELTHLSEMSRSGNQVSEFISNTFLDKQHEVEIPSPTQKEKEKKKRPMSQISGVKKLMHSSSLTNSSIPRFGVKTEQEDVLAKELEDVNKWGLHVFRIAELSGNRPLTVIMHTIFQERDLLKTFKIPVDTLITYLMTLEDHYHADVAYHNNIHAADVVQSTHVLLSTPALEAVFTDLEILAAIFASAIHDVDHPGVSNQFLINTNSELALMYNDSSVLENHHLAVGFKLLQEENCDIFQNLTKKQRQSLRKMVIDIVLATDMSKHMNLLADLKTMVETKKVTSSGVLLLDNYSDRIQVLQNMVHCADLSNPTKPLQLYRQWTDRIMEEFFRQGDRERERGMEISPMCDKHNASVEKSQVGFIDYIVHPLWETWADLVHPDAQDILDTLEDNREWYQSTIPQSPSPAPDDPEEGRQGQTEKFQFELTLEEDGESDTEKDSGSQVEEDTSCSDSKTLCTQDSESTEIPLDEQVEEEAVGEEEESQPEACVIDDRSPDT
Sequence of 5-hydroxytryptamine receptor 2B (P41595 whole entry): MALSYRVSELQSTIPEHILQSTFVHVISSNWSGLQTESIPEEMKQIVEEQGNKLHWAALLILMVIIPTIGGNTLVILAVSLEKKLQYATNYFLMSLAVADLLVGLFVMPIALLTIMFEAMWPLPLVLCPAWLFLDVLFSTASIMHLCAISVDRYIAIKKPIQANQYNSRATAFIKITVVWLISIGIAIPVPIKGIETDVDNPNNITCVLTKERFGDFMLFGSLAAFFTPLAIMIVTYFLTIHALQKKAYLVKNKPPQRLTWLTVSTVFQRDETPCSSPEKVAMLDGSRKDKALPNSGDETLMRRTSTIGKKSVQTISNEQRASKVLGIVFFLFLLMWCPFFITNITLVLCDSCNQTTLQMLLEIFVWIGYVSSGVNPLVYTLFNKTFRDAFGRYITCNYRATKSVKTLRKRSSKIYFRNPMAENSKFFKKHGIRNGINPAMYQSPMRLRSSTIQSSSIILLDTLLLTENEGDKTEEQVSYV

Compound	AC50 [1] [µM]	other results
Cc1cc2c(cc1S(N)(=O)=O)S(=O)(=O)CCC2	> 30	–
C[C@H](N[C@@H](CCc1ccccc1)C(=O)O)C(=O)N1Cc2ccccc2C[C@H]1C(=O)O	> 30	–
O=C(O)[C@@H]1C[C@@H](O)CN1	> 30	–
CC1(C)S[C@@H]2[C@H](/N=C/N3CCCCCC3)C(=O)N2[C@H]1C(=O)O [AMDINOCILLIN]	> 30	–
CC(=O)[C@]1(N)Cc2c(O)c3c(c(O)c2[C@@H](O[C@H]2C[C@H](O)[C@H](O)CO2)C1)C(=O)c1ccccc1C3=O [AMRUBICIN]	20.1	–
NC(=O)[C@@H]1CC[C@@H]2CN1C(=O)N2OS(=O)(=O)O [AVIBACTAM]	> 30	–
CC(=O)OC[C@H]1O[C@@H](n2ncc(=O)[nH]c2=O)[C@H](OC(C)=O)[C@@H]1OC(C)=O [AZARIBINE]	> 30	–
CC(O)(CS(=O)(=O)c1ccc(F)cc1)C(=O)Nc1ccc(C#N)c(C(F)(F)F)c1 (stereo unspecified) [BICALUTAMIDE]	> 10	AC50 [2]: > 30 µM; AC50 [3]: > 30 µM; AC50 [4]: > 10 µM; AC50 [5]: > 10 µM; AC50 [6]: > 10 µM; AC50 [7]: > 10 µM; AC50 [8]: > 30 µM; AC50 [9]: > 30 µM; AC50 [10]: > 10 µM
CC(C)(C)NC(=O)N[C@H](C(=O)N1C[C@H]2[C@@H]([C@H]1C(=O)NC(CC1CCC1)C(=O)C(N)=O)C2(C)C)C(C)(C)C (stereo partly specified) [BOCEPREVIR]	> 30	–
O=C(O)COCCN1CCN(C(c2ccccc2)c2ccc(Cl)cc2)CC1 (stereo unspecified) [CETIRIZINE]	> 30	AC50 [6]: > 10 µM; AC50 [8]: > 30 µM; AC50 [9]: > 30 µM; AC50 [10]: > 30 µM
C=C1CC[C@H](O)C/C1=C/C=C1\CCC[C@]2(C)[C@@H]([C@H](C)CCCC(C)C)CC[C@@H]12 [CHOLECALCIFEROL]	> 30	–
C[C@H](CCC(=O)O)[C@H]1CC[C@H]2[C@@H]3[C@H](O)C[C@@H]4C[C@H](O)CC[C@]4(C)[C@H]3C[C@H](O)[C@]12C [CHOLIC ACID]	> 30	–
Cc1ncc2c(c1O)COC2c1ccc(Cl)cc1 (stereo unspecified) [CICLETANINE]	> 30	–
Cc1cn([C@H]2O[C@@H](CO)[C@H](O)[C@H]2F)c(=O)[nH]c1=O [CLEVUDINE]	> 30	–
N#Cc1ccc(Oc2ccc3c(c2)COB3O)cc1 [CRISABOROLE]	> 30	AC50 [9]: 0.8 µM; AC50 [10]: > 30 µM
CC(=O)O[C@]1(C(C)=O)CC[C@H]2[C@@H]3C=C(Cl)C4=CC(=O)[C@@H]5C[C@@H]5[C@]4(C)[C@H]3CC[C@@]21C [CYPROTERONE ACETATE]	> 30	AC50 [2]: > 30 µM; AC50 [5]: > 10 µM; AC50 [7]: > 10 µM; AC50 [8]: > 30 µM; AC50 [9]: > 30 µM; AC50 [10]: > 30 µM
CC(=O)[C@H]1CC[C@H]2[C@@H]3C=CC4=CC(=O)CC[C@@]4(C)[C@@H]3CC[C@]12C [DYDROGESTERONE]	> 30	–
CC(=O)O[C@H]1Cc2ccccc2N(C(N)=O)c2ccccc21 [ESLICARBAZEPINE ACETATE]	> 30	–
CC(O)(P(=O)(O)O)P(=O)(O)O [ETIDRONIC ACID]	> 30	–
C[C@@H]1C[C@H]2[C@@H]3C[C@H](F)C4=CC(=O)C=C[C@]4(C)[C@@]3(F)[C@@H](O)C[C@]2(C)[C@@]1(OC(=O)c1ccco1)C(=O)SCF [FLUTICASONE FUROATE]	> 30	AC50 [2]: > 10 µM; AC50 [4]: > 10 µM; AC50 [5]: > 30 µM; AC50 [6]: > 10 µM; AC50 [7]: > 10 µM; AC50 [8]: > 10 µM; AC50 [9]: > 30 µM; AC50 [10]: > 30 µM
Cc1ccc(S(=O)(=O)NC(=O)NC2CCCCC2)cc1 [GLYCYCLAMIDE]	> 30	–

Compound	AC50 [1] [µM]	other results
CN1CCCN(C(c2ccccc2)c2ccc(Cl)cc2)CC1 (stereo unspecified) [HOMOCHLORCYCLIZINE]	> 30	–
CC(=O)OCC(=O)[C@@]1(O)CC[C@H]2[C@@H]3CCC4=CC(=O)CC[C@]4(C)[C@H]3[C@@H](O)C[C@@]21C [HYDROCORTISONE ACETATE]	> 30	–
CC(COc1ccccc1)NC(C)C(O)c1ccc(O)cc1 (stereo unspecified) [ISOXSUPRINE]	> 30	–
O=C(CCC/C=C\C[C@@H]1[C@@H](CC[C@@H](O)CCc2ccccc2)[C@H](O)C[C@@H]1O)OCCCCO[N+](=O)[O-] [LATANOPROSTENE BUNOD]	> 30	–
Cc1oc(=O)oc1COC(=O)[C@@H]1N2C(=O)[C@@H](NC(=O)[C@H](N)c3ccccc3)[C@H]2SC1(C)C [LENAMPICILLIN]	> 30	–
COc1ccc(OC)c(C(O)C(C)N)c1 (stereo unspecified) [METHOXAMINE]	0.021	–
CC1(CCN2CCCCC2)C(=O)CCc2ccccc21 (stereo unspecified) [NEPINALONE]	> 30	–
COC(=O)C[C@](O)(CCCC(C)(C)O)C(=O)O[C@@H]1C(OC)=C[C@]23CCCN2CCc2cc4c(cc2[C@H]13)OCO4 [OMACETAXINE MEPESUCCINATE]	> 30	–
COc1cccc(C(=O)CCN[C@@H](C)[C@H](O)c2ccccc2)c1 [OXYFEDRINE]	> 30	–
CC[N+](C)(CC)CCOC(=O)C(O)(c1ccccc1)C1CCCCC1 (stereo unspecified) [OXYPHENONIUM]	> 30	–
C[C@@H]1C[C@H]2[C@@H]3C[C@H](F)C4=CC(=O)C=C[C@]4(C)[C@H]3[C@@H](O)C[C@]2(C)[C@@]1(O)C(=O)CO [PARAMETHASONE]	> 30	–
CCC[C@H](N[C@@H](C)C(=O)N1[C@H](C(=O)O)C[C@@H]2CCCC[C@@H]21)C(=O)OCC [PERINDOPRIL]	> 30	–
NNCCc1ccccc1 [PHENELZINE]	11.5	–
N[C@@H](Cc1ccccc1)C(=O)O [PHENYLALANINE]	> 30	–
CCCn1cnc2c1c(=O)n(CCCCC(C)=O)c(=O)n2C [PROPENTOFYLLINE]	> 30	–
Clc1ccc(C(Cn2ccnc2)OCc2csc3c(Cl)cccc23)c(Cl)c1 (stereo unspecified) [SERTACONAZOLE]	24.3	–
CC(OCCN1CCCCCC1)(c1ccccc1)c1ccc(Cl)cc1 (stereo unspecified) [SETASTINE]	28.1	–
COc1cc(C)c2c(Oc3cccc(C(F)(F)F)c3)c(OC)cc(NC(C)CCCN)c2n1 (stereo unspecified) [TAFENOQUINE]	> 3	–
CCCSc1nc(N[C@@H]2C[C@H]2c2ccc(F)c(F)c2)c2nnn([C@@H]3C[C@H](OCCO)[C@@H](O)[C@H]3O)c2n1 [TICAGRELOR]	> 30	–
c1ccc2c(SC3=NCCN3)c[nH]c2c1 [TINAZOLINE]	0.003	–
Cc1ccc(C(=O)C(C)CN2CCCCC2)cc1 (stereo unspecified) [TOLPERISONE]	> 30	–
